Laboratory results from ChEMBL document CHEMBL3045784, “Effects of oleic acid on the tissue factor activity, blood lipids, antioxidant and oxidant parameters of streptozotocin induced diabetic rats fed a high-cholesterol diet” (Med Chem Res, 2010).

How the values were obtained:
Rattus norvegicus [1] = test: Increase in blood GSH level in Rattus norvegicus Wistar (rat) diabetic-hyperlipidemic model at 10.91% administered through feeding measured after 12 weeks (reference value: 20.31 +/- 0.93 %mg); type: functional
Rattus norvegicus [2] = test: Antidiabetic activity in Rattus norvegicus Wistar (rat) diabetic-hyperlipidemic model assessed as serum glucose level at 10.91% administered through feeding measured after 12 weeks ( Rvb = 194.4 +/- 23.99 mg/dl); type: functional
Rattus norvegicus [3] = test: Anticoagulant activity in Rattus norvegicus Wistar (rat) diabetic-hyperlipidemic model assessed as fibrinogen level at 10.91% administered through feeding measured after 12 weeks (reference value: 2.13 +/- 0.23 g/l); type: functional
Rattus norvegicus [4] = test: Anticoagulant activity in Rattus norvegicus Wistar (rat) diabetic-hyperlipidemic model assessed as decrease in TFa activity in lung measuring clotting time at 10.91% administered through feeding measured after 12 weeks (reference value: 19.25 +/- 3.20 secs); type: functional
Rattus norvegicus [5] = test: Toxicity in Rattus norvegicus Wistar (rat) diabetic-hyperlipidemic model assessed as change in body weight at 10.91% administered through feeding measured for 12 weeks ( Rvb = 290 +/-76 g); type: organism-based; conditions: in vivo, po, 2016 h
Rattus norvegicus [6] = test: Anticoagulant activity in Rattus norvegicus Wistar (rat) diabetic-hyperlipidemic model assessed as decrease in TFa activity in aorta measuring clotting time at 10.91% administered through feeding measured after 12 weeks (reference value: 36.25 +/- 1.39 secs); type: functional
Rattus norvegicus [7] = test: Antihyperlipidemic activity in Rattus norvegicus Wistar (rat) diabetic-hyperlipidemic model assessed as serum triglyceride level at 10.91% administered through feeding measured after 12 weeks ( Rvb = 86.45 +/- 5.7 mg/dl); type: functional
Rattus norvegicus [8] = test: Antihyperlipidemic activity in Rattus norvegicus Wistar (rat) diabetic-hyperlipidemic model assessed as serum LDL-cholesterol level at 10.91% administered through feeding measured after 12 weeks ( Rvb = 74.25 +/- 9.36 mg/dl); type: functional
Rattus norvegicus [9] = test: Anticoagulant activity in Rattus norvegicus Wistar (rat) diabetic-hyperlipidemic model assessed as decrease in TFa activity in kidney measuring clotting time at 10.91% administered through feeding measured after 12 weeks (reference value: 52.38 +/- 2 secs); type: functional
Rattus norvegicus [10] = test: Anticoagulant activity in Rattus norvegicus Wistar (rat) diabetic-hyperlipidemic model assessed as activated partial thromboplastin time at 10.91% administered through feeding measured after 12 weeks (reference value: 17.13 +/- 1.73 secs); type: functional
Rattus norvegicus [11] = test: Anticoagulant activity in Rattus norvegicus Wistar (rat) diabetic-hyperlipidemic model assessed as decrease in TFa activity in spleen measuring clotting time at 10.91% administered through feeding measured after 12 weeks (reference value: 69.63 +/- 1.77 secs); type: functional
Rattus norvegicus [12] = test: Anticoagulant activity in Rattus norvegicus Wistar (rat) diabetic-hyperlipidemic model assessed as prothombin time at 10.91% administered through feeding measured after 12 weeks (reference value: 14.69 +/- 0.8 secs); type: functional
Rattus norvegicus [13] = test: Anticoagulant activity in Rattus norvegicus Wistar (rat) diabetic-hyperlipidemic model assessed as decrease in TFa activity in pancreas measuring clotting time at 10.91% administered through feeding measured after 12 weeks (reference value: 27.25 +/- 2.82 secs); type: functional
Rattus norvegicus [14] = test: Antihyperlipidemic activity in Rattus norvegicus Wistar (rat) diabetic-hyperlipidemic model assessed as serum HDL-cholesterol level at 10.91% administered through feeding measured after 12 weeks ( Rvb = 22.80 +/- 2.41 mg/dl); type: functional
Rattus norvegicus [15] = test: Antihyperlipidemic activity in Rattus norvegicus Wistar (rat) diabetic-hyperlipidemic model assessed as serum total lipid level at 10.91% administered through feeding measured after 12 weeks ( Rvb = 922.25 +/- 41.78 mg/dl); type: functional
Rattus norvegicus [16] = test: Antihyperlipidemic activity in Rattus norvegicus Wistar (rat) diabetic-hyperlipidemic model assessed as serum total cholesterol level at 10.91% administered through feeding measured after 12 weeks ( Rvb = 309 +/- 35.88 mg/dl); type: functional
Rattus norvegicus [17] = test: Antioxidant activity in Rattus norvegicus Wistar (rat) diabetic-hyperlipidemic model assessed as serum malondialdehyde level at 10.91% administered through feeding measured after 12 weeks by TBARS assay (reference value: 5.78 +/- 0.08 nmol/ml); type: functional
Rattus norvegicus [18] = test: Anticoagulant activity in Rattus norvegicus Wistar (rat) diabetic-hyperlipidemic model assessed as decrease in TFa activity in liver measuring clotting time at 10.91% administered through feeding measured after 12 weeks (reference value: 74.38 +/- 4.60 secs); type: functional
Rattus norvegicus [19] = test: Anticoagulant activity in Rattus norvegicus Wistar (rat) diabetic-hyperlipidemic model assessed as decrease in TFa activity in heart measuring clotting time at 10.91% administered through feeding measured after 12 weeks (reference value: 27.13 +/- 3.72 secs); type: functional
Rattus norvegicus [20] = test: Anticoagulant activity in Rattus norvegicus Wistar (rat) diabetic-hyperlipidemic model assessed as decrease in TFa activity in brain measuring clotting time at 10.91% administered through feeding measured after 12 weeks (reference value: 50.5 +/- 1.77 secs); type: functional

In the case of CCCCCCCC/C=C\CCCCCCCC(=O)O [OLEIC ACID], the Activity (Rattus norvegicus [1]) is reported as 29.96 %mg, the Activity (Rattus norvegicus [2]) is reported as 190.63 mg/dL and the Activity (Rattus norvegicus [3]) is reported as 1.97 g/L. It also gave a Time (Rattus norvegicus [4]) of 20.38 s, an Activity (Rattus norvegicus [5]) of 243 g and a Time (Rattus norvegicus [6]) of 33.5 s. For the same compound, the Activity (Rattus norvegicus [7]) was 71.68 mg/dL, the Activity (Rattus norvegicus [8]) was 74.63 mg/dL and the Time (Rattus norvegicus [9]) was 65.13 s. It also gave an APTT (Rattus norvegicus [10]) of 17.88 s, a Time (Rattus norvegicus [11]) of 62.25 s and a PT (Rattus norvegicus [12]) of 15.1 s. For the same compound, the Time (Rattus norvegicus [13]) was 28.5 s, the Activity (Rattus norvegicus [14]) was 25.53 mg/dL and the Activity (Rattus norvegicus [15]) was 773.75 mg/dL. For the same compound, the Activity (Rattus norvegicus [16]) was 351.3 mg/dL, the Activity (Rattus norvegicus [17]) was 5.81 nmol/mL and the Time (Rattus norvegicus [18]) was 77.25 s. The Time (Rattus norvegicus [19]) was 28.25 s and the Time (Rattus norvegicus [20]) was 60.13 s.
